{"source": "patent US4695545A", "about": "“Culture and process for producing A41030 antibiotics” (Eli Lilly and Company, priority 1984, dated 1987)", "key": {"Haemophilus influenzae": {"test_system": "Haemophilus influenzae", "test": "MIC aerobic bacteria, standard agar-dilution assay", "type": "cell-based"}, "Escherichia coli": {"test_system": "Escherichia coli", "test": "MIC aerobic bacteria, standard agar-dilution assay", "type": "cell-based"}, "[1]": {"test_system": "Peptostreptococcus intermedius", "test": "MIC anaerobic bacteria, agar-dilution", "type": "cell-based", "settings": "Peptostreptococcus intermedius 1264"}, "Fusobacterium symbiosum": {"test_system": "Fusobacterium symbiosum", "test": "MIC anaerobic bacteria, agar-dilution", "type": "cell-based", "settings": "Fusobacterium symbiosum 1470"}, "Bacteroides corrodens": {"test_system": "Bacteroides corrodens", "test": "MIC anaerobic bacteria, agar-dilution", "type": "cell-based", "settings": "Bacteroides corrodens 1874"}, "S. pyogenes": {"test_system": "S. pyogenes", "test": "Experimental bacterial infection in mice, subcutaneous ED50", "type": "in vivo", "settings": "two doses subcutaneously", "method": "All of the A41030 factors tested have shown in vivo antimicrobial activity against experimental bacterial infections. When two doses of test compound were administered subcutaneously to mice in illustrative infections, the activity observed is measured as an ED50 value [effective dose in mg./kg. to protect fifty percent of the test animals: See Warren Wick, et al., J. Bacteriol. 81, 233-235 (1961)]."}}, "data": [{"substance": "A41030 factor B", "values": [{"measurement": "MIC", "setting": "Haemophilus influenzae; Haemophilus influenzae 251, 24 hours", "value": 2, "unit": "µg/mL"}, {"measurement": "MIC", "setting": "Haemophilus influenzae; Haemophilus influenzae Brun, 24 hours", "value": 8, "unit": "µg/mL"}, {"measurement": "MIC", "setting": "Escherichia coli; Escherichia coli EC14, 24 hours", "value": 128, "unit": "µg/mL"}, {"measurement": "MIC", "setting": "Escherichia coli; Escherichia coli N10, 24 hours", "value": 128, "unit": "µg/mL"}, {"measurement": "MIC", "setting": "Escherichia coli; Escherichia coli TEM, 24 hours", "value": 128, "unit": "µg/mL"}, {"measurement": "MIC", "setting": "[1]", "value": 0.5, "unit": "µg/mL"}, {"measurement": "MIC", "setting": "Fusobacterium symbiosum", "value": 1.0, "unit": "µg/mL"}, {"measurement": "MIC", "setting": "Bacteroides corrodens", "value": 64, "unit": "µg/mL"}, {"measurement": "ED50", "setting": "S. pyogenes", "value": 1.4, "unit": "mg/kg"}]}]}
